This note sets out measurements from patent US8716480B2, “7-aryl-1,2,4-triazolo[4,3-a]pyridine derivatives and their use as positive allosteric modulators of mGluR2 receptors” (Janssen Pharmaceuticals, Inc., priority 2009, dated 2014).

T1 sequence (Q14416 19-872): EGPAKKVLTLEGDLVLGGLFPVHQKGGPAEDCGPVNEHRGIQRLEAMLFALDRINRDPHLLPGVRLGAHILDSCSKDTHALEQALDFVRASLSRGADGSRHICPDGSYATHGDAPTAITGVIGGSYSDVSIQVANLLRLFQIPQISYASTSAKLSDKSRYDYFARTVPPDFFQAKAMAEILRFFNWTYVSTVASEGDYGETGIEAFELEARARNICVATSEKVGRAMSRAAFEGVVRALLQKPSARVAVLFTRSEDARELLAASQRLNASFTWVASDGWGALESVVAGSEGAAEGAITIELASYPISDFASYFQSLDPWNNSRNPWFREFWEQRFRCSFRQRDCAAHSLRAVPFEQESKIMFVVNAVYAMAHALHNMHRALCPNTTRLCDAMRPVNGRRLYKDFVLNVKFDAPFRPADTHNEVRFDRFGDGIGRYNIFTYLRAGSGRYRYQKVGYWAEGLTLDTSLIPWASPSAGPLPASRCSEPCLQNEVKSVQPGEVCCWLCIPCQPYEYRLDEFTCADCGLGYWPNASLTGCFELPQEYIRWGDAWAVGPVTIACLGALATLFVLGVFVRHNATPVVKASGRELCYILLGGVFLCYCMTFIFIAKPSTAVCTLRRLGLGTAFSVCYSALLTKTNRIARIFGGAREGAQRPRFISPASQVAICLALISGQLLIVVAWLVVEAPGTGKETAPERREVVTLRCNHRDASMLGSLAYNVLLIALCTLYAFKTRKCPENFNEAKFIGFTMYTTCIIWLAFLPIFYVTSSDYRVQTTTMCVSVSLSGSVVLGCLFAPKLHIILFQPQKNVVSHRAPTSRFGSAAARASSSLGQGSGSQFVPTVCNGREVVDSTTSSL

One series has as its target T1, human mGluR2 receptor (Homo sapiens, UniProt Q14416).
T1 construct: expressed in transfected cells; host or cells: CHO cells (membranes)
The series is described as follows: [35S]GTPγS binding assay (PAM). In kind it is biochemical. As to conditions: in presence of glutamate at predetermined EC20; membranes from CHO cells transfected with human mGluR2. How it is done:
[^35S]GTPγS binding assay
The [^35S]GTPγS binding assay is a functional membrane-based assay used to study G-protein coupled receptor (GPCR) function whereby incorporation of a non-hydrolysable form of GTP, [^35S]GTPγS (guanosine 5′-triphosphate, labelled with […] ^35S), is measured.
CHO-cells were cultured to pre-confluence and stimulated with 5 mM butyrate for 24 h, prior to washing in PBS, and then collected by scraping in homogenisation buffer (50 mM Tris-HCl buffer, pH 7.4, 4° C.). Cell lysates were homogenized briefly using an ultra-turrax homogenizer. The homogenate was centrifuged at 16,000 RPM (Sorvall RC-5C plus rotor SS-34) for 10 minutes and the supernatant discarded. The pellet was resuspended in 5 mM Tris-HCl, pH 7.4 and centrifuged again (18,000 RPM, 20 min, 4° C.). The final pellet was resuspended in 50 mM Tris-HCl, pH 7.4 and stored at −80° C. in appropriate aliquots before use. Protein concentration was determined by the Bradford method (Bio-Rad, USA) with bovine serum albumin as standard.
Measurement of mGluR2 positive allosteric modulatory activity of test compounds was performed as follows. Test compounds and glutamate were diluted in assay buffer containing 10 mM HEPES acid, 10 mM HEPES salt, pH 7.4, 100 mM NaCl, 3 mM MgCl2 and 10 μM GDP. Human mGlu2 receptor-containing membranes were thawed on ice and diluted in assay buffer supplemented with 14 μg/ml saponin. Membranes were pre-incubated with compound alone or together with a predefined (˜EC20) concentration of glutamate (PAM assay) for 30 min at 30° C. After addition of [^35S]GTPγS (f.c. 0.1 nM) microplates were shaken briefly and further incubated to allow [^35S]GTPγS incorporation on activation (30 minutes, 30° C.). Final assay mixtures contained 7 μg of membrane protein in 10 mM HEPES acid, 10 mM HEPES salt, pH 7.4, 100 mM NaCl, 3 mM MgCl2, 10 μM GDP and 10 μg/ml saponin. Total reaction volume was […] Reactions were terminated by rapid filtration through Unifilter-96 GF/B filter plates (Packard, Meriden, Conn.) using a 96-well Packard filtermate harvester. Filters were washed 6 times with ice-cold 10 mM NaH2PO4/10 mM Na2HPO4, pH 7.4. Filters were then air-dried, and 40 μl of liquid scintillation cocktail (Microscint-O) was added to each well. Membrane-bound radioactivity was counted in a Microplate Scintillation and Luminescence Counter from Packard.
obtained in the presence of EC20 of mGluR2 agonist glutamate to determine positive allosteric modulation (PAM)—were generated using the Lexis software interface (developed at J&J). Data were calculated as % of the control glutamate response, defined as the maximal response that is generated upon addition of glutamate alone. Sigmoid concentration-response curves plotting these percentages versus the log concentration of the test compound were analyzed using non-linear regression analysis. The concentration producing half-maximal effect is then calculated as EC50.
All compounds were tested in presence of mGluR2 agonist, glutamate at a predetermined EC20 concentration, to determine positive allosteric modulation (GTPγS-PAM). pEC50 values were calculated from a concentration-response experiment of at least 10 concentrations.
On the technique in general: GTPγS resists hydrolysis and so accumulates on activated G proteins.
In the case of `Clc1c(-c2ccc(Oc3ccccc3)cc2)ccn2c(C3CCC3)nnc12` [Co. No. 17], the “GTPγS -hR2 PAM pEC50” value was 6.88.
On to `FC(F)(F)C1CCN(Cc2ccc(-c3ccn4c(CC5CC5)nnc4c3Cl)cc2)CC1` [Co. No. 19], for which the “GTPγS -hR2 PAM pEC50” value was 6.13.
With `O[C@H]1CC[C@H](Nc2ccc(-c3ccn4c(CC5CC5)nnc4c3Cl)cc2Cl)CC1` [Co. No. 21], the “GTPγS -hR2 PAM pEC50” value is 7.11.
On to `Clc1cc(-c2ccn3c(CC4CC4)nnc3c2Cl)ccc1OC1CCOCC1` [Co. No. 23], for which the “GTPγS -hR2 PAM pEC50” value was determined as 6.53.
The same measure, in the same setting: with `Fc1cc(-c2ccn3c(CC4CC4)nnc3c2Cl)ccc1NC1CC1` [Co. No. 25] the figure was 7.20; with `O[C@H]1CC[C@@H](Oc2ccc(-c3ccn4c(CC(F)(F)F)nnc4c3Cl)cc2Cl)CC1` [Co. No. 26], 7.01.
`O[C@H]1CC[C@H](Oc2ccc(-c3ccn4c(CC(F)(F)F)nnc4c3Cl)cc2Cl)CC1` [Co. No. 27]: the “GTPγS -hR2 PAM pEC50” value stood at 6.80.
For the molecule `Clc1c(-c2ccccc2)ccn2c(CN3CCOc4ccccc4C3)nnc12` [Co. No. 28], the “GTPγS -hR2 PAM pEC50” value worked out at 6.05.
`O[C@H]1CC[C@H](Nc2ccc(-c3ccn4c(CC(F)(F)F)nnc4c3Cl)cc2Cl)CC1` [Co. No. 29]: the “GTPγS -hR2 PAM pEC50” value is given as 7.40.
For the molecule `FC(F)(F)Cc1nnc2c(Cl)c(-c3ccc(NC4CCOCC4)c(Cl)c3)ccn12` [Co. No. 30], the “GTPγS -hR2 PAM pEC50” value is reported as 6.66.
For `FC(F)(F)c1c(-c2ccc(NC3CC3)c(Cl)c2)ccn2c(CC3CC3)nnc12` [Co. No. 31], the “GTPγS -hR2 PAM pEC50” value was 8.15.
For `CCOCc1nnc2c(Cl)c(-c3ccc(Oc4ccc(C)nc4C)c(F)c3)ccn12` [Co. No. 33], the “GTPγS -hR2 PAM pEC50” value is given as 7.13.
Still for that read-out and setting: with `CCOCc1nnc2c(C(F)(F)F)c(-c3ccc(Oc4cc(C)nc(C)c4)c(F)c3)ccn12` [Co. No. 37] the figure was 6.63; with `Cc1cc(Oc2ccc(-c3ccn4c(CC5CC5)nnc4c3C(F)(F)F)cc2F)cc(C)n1` [Co. No. 38], 7.16.
`Cc1cc(Oc2ccc(-c3ccn4c(CC(F)(F)F)nnc4c3Cl)cc2Cl)ccn1` [Co. No. 40]: the “GTPγS -hR2 PAM pEC50” value was determined as 6.78.
`Cc1cc(Oc2ccc(-c3ccn4c(CCC5CC5)nnc4c3Cl)cc2F)ccn1` [Co. No. 41]: the “GTPγS -hR2 PAM pEC50” value is 6.54.
`CCOCc1nnc2c(C(F)(F)F)c(-c3ccc(Oc4ccc(C)nc4C)c(F)c3)ccn12` [Co. No. 44]: the “GTPγS -hR2 PAM pEC50” value was 7.51.
As to `O[C@]1(C2CC2)CC[C@H](Nc2ccc(-c3ccn4c(CC5CC5)nnc4c3C(F)(F)F)cc2Cl)CC1` [Co. No. 47], the “GTPγS -hR2 PAM pEC50” value was determined as 8.79.
On the same count and under the same terms, then `CC(C)Nc1ccc(-c2ccn3c(CC4CC4)nnc3c2Cl)cc1F` [Co. No. 50], with 6.65; and `CC(C)Nc1ccc(-c2ccn3c(CC4CC4)nnc3c2Cl)cc1Cl` [Co. No. 51], with 7.13; and `CC(C)Nc1ccc(-c2ccn3c(CC4CC4)nnc3c2C(F)(F)F)cc1Cl` [Co. No. 52], with 7.77.
As for `Cc1ccc(Oc2ccc(-c3ccn4c(CC5CC5)nnc4c3C(F)(F)F)cc2Cl)c(C)n1` [Co. No. 53], the “GTPγS -hR2 PAM pEC50” value is 8.79.
As to `Cc1ccc(Oc2ccc(-c3ccn4c(CC(F)(F)F)nnc4c3Cl)cc2Cl)c(C)n1` [Co. No. 55], the “GTPγS -hR2 PAM pEC50” value was 8.00.
`COc1ccc(CNc2ccc(-c3ccn4c(CC5CC5)nnc4c3Cl)cc2)cn1` [Co. No. 59]: the “GTPγS -hR2 PAM pEC50” value is on record as 7.15.
With `Cc1ccc(Oc2ccc(-c3ccn4c(CC5CC5)nnc4c3C)cc2Cl)c(C)n1` [Co. No. 61], the “GTPγS -hR2 PAM pEC50” value was 7.70.
As for `CCOCc1nnc2c(C)c(-c3ccc(Oc4ccc(C)nc4C)c(Cl)c3)ccn12` [Co. No. 65], the “GTPγS -hR2 PAM pEC50” value was 7.26.
Take `CC(C)Nc1ccc(-c2ccn3c(CC4CC4)nnc3c2Cl)cn1` [Co. No. 66]: the “GTPγS -hR2 PAM pEC50” value is reported as 6.51.
Same read-out and setting: then `Clc1c(-c2ccc(N3CCOCC3)nc2)ccn2c(CC3CC3)nnc12` [Co. No. 67], with 5.61; and `FC(F)(F)c1c(-c2ccc(N3CCOCC3)nc2)ccn2c(CC3CC3)nnc12` [Co. No. 68], with 5.90.
On to `Clc1c(-c2ccc(N3CCCCC3)nc2)ccn2c(CC3CC3)nnc12` [Co. No. 69], for which the “GTPγS -hR2 PAM pEC50” value was determined as 6.53.
`FC(F)(F)c1c(-c2ccc(N3CCCCC3)nc2)ccn2c(CC3CC3)nnc12` [Co. No. 70]: the “GTPγS -hR2 PAM pEC50” value was 6.67.
In the case of `FC(F)(F)c1c(-c2ccc(CN3CCOCC3)c(Cl)c2)ccn2c(CC3CC3)nnc12` [Co. No. 71], the “GTPγS -hR2 PAM pEC50” value is recorded as 7.02.
On to `CC1(O)CCN(Cc2ccc(-c3ccn4c(CC5CC5)nnc4c3C(F)(F)F)cc2Cl)CC1` [Co. No. 72], for which the “GTPγS -hR2 PAM pEC50” value is reported as 6.49.
On the same count and under the same terms, then `FC(F)(F)c1c(-c2ccc(CNC3CCOCC3)c(Cl)c2)ccn2c(CC3CC3)nnc12` [Co. No. 74], with 6.21; and `Cc1ccc(CNc2ccc(-c3ccn4c(CC5CC5)nnc4c3C(F)(F)F)cc2F)cn1` [Co. No. 78], with 7.98.

The series is the same for the next values; noted with them: in presence of glutamate at predetermined EC20; membranes from CHO cells transfected with human mGluR2; read-out: GTPγS -hR2 PAM pEC50 (converted).
For `OC1CCC(Nc2ccc(-c3ccn4c(CC5CC5)nnc4c3Cl)cc2Cl)CC1` (single isomer, unassigned) [Co. No. 13-a, 7-[3-Chloro-4-(4-hydroxy-cyclohexylamino)-phenyl]-8-chloro-3-cyclopropylmethyl-[1,2,4]triazolo[4,3-a]pyridine], the EC50 is 22.9 nM.
`Clc1c(-c2ccccc2)ccn2c(CN3CCC(c4ccccc4)CC3)nnc12` [Co. No. 5]: the EC50 was 191 nM.
On the same count and under the same terms, with `Clc1cc(-c2ccn3c(CC4CC4)nnc3c2Cl)ccc1NC1CC1` [Co. No. 6] the figure was 36.3 nM.
With `FC(F)(F)c1c(-c2ccc(OC3CCOCC3)c(Cl)c2)ccn2c(CC3CC3)nnc12` [Co. No. 9, 8-Trifluoromethyl-7-[3-chloro-4-(tetrahydro-pyran-4-yloxy)-phenyl]-3-cyclopropylmethyl-[1,2,4]triazolo[4,3-a]pyridine], the EC50 was 40.7 nM.
On the same count and under the same terms, with `FC(F)(F)c1c(-c2ccc(NC3CCOCC3)c(Cl)c2)ccn2c(CC3CC3)nnc12` [Co. No. 10, 8-Trifluoromethyl-7-[3-chloro-4-(tetrahydro-pyran-4-ylamino)-phenyl]-3-cyclopropylmethyl-[1,2,4]triazolo[4,3-a]pyridine] the figure was 17 nM.
Still for that read-out and setting: then `O[C@H]1CC[C@H](Nc2ccc(-c3ccn4c(CC5CC5)nnc4c3Cl)cc2Cl)CC1` [Co. No. 12, 8-Cloro-7-[3-chloro-4-(4-hydroxy-cyclohexylamino)-phenyl]-3-cyclopropylmethyl-[1,2,4]triazolo[4,3-a]pyridine], with 41.7 nM.
Take `CCOCc1nnc2c(C(F)(F)F)c(-c3ccc(Oc4ccnc(C)c4)c(F)c3)ccn12` [Co. No. 36, 3-Ethoxymethyl-7-[3-fluoro-4-(2-methyl-pyridin-4-yloxy)-phenyl]-8-trifluoromethyl-[1,2,4]triazolo[4,3-a]pyridine]: the EC50 was 219 nM.
For `CC(C)Nc1ccc(-c2ccn3c(CC4CC4)nnc3c2C(F)(F)F)cc1F` [Co. No. 49, 3-Cyclopropylmethyl-7-[3-fluoro-4-(isopropylamino)-phenyl]-8-trifluoromethyl-[1,2,4]triazolo[4,3-a]pyridine], the EC50 was 60.3 nM.

Tested on in a further series: not given
Assay: not given
Conditions: not given
For `Clc1cc(-c2ccn3c(CC4CC4)nnc3c2Cl)ccc1NC1CC1` [Co. No. 6], the melting point (usually the temperature of the solid-liquid transition) was greater than 300 °C.
The same measure, in the same setting: with `Clc1c(-c2ccc(Oc3ccccc3)cc2)ccn2c(CC3CC3)nnc12` [Co. No. 8, 8-Chloro-3-cyclopropylmethyl-7-(4-phenoxy-phenyl)-1,2,4-triazolo[4,3-a]pyridine] the figure was 156.7 °C; with `FC(F)(F)c1c(-c2ccc(OC3CCOCC3)c(Cl)c2)ccn2c(CC3CC3)nnc12` [Co. No. 9, 8-Trifluoromethyl-7-[3-chloro-4-(tetrahydro-pyran-4-yloxy)-phenyl]-3-cyclopropylmethyl-[1,2,4]triazolo[4,3-a]pyridine], 176.9 °C; with `FC(F)(F)c1c(-c2ccc(NC3CCOCC3)c(Cl)c2)ccn2c(CC3CC3)nnc12` [Co. No. 10, 8-Trifluoromethyl-7-[3-chloro-4-(tetrahydro-pyran-4-ylamino)-phenyl]-3-cyclopropylmethyl-[1,2,4]triazolo[4,3-a]pyridine], 198.4 °C.
For `O[C@H]1CC[C@H](Nc2ccc(-c3ccn4c(CC5CC5)nnc4c3Cl)cc2Cl)CC1` [Co. No. 12, 8-Cloro-7-[3-chloro-4-(4-hydroxy-cyclohexylamino)-phenyl]-3-cyclopropylmethyl-[1,2,4]triazolo[4,3-a]pyridine], the melting point worked out at 273.7 °C.
The molecule `CCOCc1nnc2c(C(F)(F)F)c(-c3ccc(Oc4ccnc(C)c4)c(F)c3)ccn12` [Co. No. 36, 3-Ethoxymethyl-7-[3-fluoro-4-(2-methyl-pyridin-4-yloxy)-phenyl]-8-trifluoromethyl-[1,2,4]triazolo[4,3-a]pyridine] gave a melting point of 171.2 °C.
Still for that read-out and setting: with `CC(C)Nc1ccc(-c2ccn3c(CC4CC4)nnc3c2C(F)(F)F)cc1F` [Co. No. 49, 3-Cyclopropylmethyl-7-[3-fluoro-4-(isopropylamino)-phenyl]-8-trifluoromethyl-[1,2,4]triazolo[4,3-a]pyridine] the figure was 196.9 °C.
